{"source": "patent US20220016243A1", "about": "“METHODS FOR TREATMENT OF CANCER WITH AN ANTI-TIGIT ANTAGONIST ANTIBODY” (Genentech, Inc., priority 2020, published 2022)", "key": {"[1]": {"settings": "cited from earlier work"}, "[2]": {"settings": "human, in vivo; cited from earlier work"}, "[3]": {"experiment": "Internal safety review of lung cancer clinical trials (paclitaxel)", "type": "in vivo, human", "settings": "patients from Asian countries compared with those from non-Asian countries", "protocol": "Patients of Asian race/ethnicity have a lower starting dose of paclitaxel at 175 mg/m2 IV over 3 hours. […] As used in this study, Asian race/ethnicity refers to a panethnic/racial group that includes diverse populations who either live or have ancestral origins in East Asia, Southeast Asia, or South Asia. The applicability of such term in a particular patient is at the discretion of the treating investigator and should be based on the patient's clinical characteristics and country of origin."}, "[4]": {"test_system": "patients with advanced or metastatic HCC", "settings": "cited from earlier work"}, "[5]": {"test_system": "patients with metastatic bladder", "settings": "8 of 17 patients at the recommended Phase II dose; prior CPI treatment; 95% CI: 23, 72.2; cited from earlier work"}, "[6]": {"test_system": "chemotherapy-naive patients with locally advanced unresectable or metastatic PD-L1-selected NSCLC", "settings": "cutoff 30 Jun. 2019"}, "[7]": {"test_system": "patients with mUC who had progressed on platinum-based therapy and checkpoint inhibitor therapy", "settings": "cited from earlier work"}}, "note": "Like-named read-outs stand apart in the source and are kept apart here."}
{"compound": "[NH2][Pt]1([NH2])[O]C(=O)C2(CCC2)C(=O)[O]1", "note": "[carboplatin, platinum, diammine[I,I-cyclobutanedicarboxylato(2-)-0,0′]-, (SP-4-2)]", "values": [{"measurement": "pH of a 1% solution", "setting": "[1]; 1% solution", "value": "5 to 7"}, {"measurement": "solubility in ethanol, acetone, and dimethylacetamide", "setting": "[1]; ethanol, acetone, dimethylacetamide", "value": "virtually insoluble"}, {"measurement": "solubility in water", "setting": "[1]; water", "value": "approximately 14 mg/mL"}]}
{"compound": "Nc1ccn([C@@H]2O[C@H](CO)[C@@H](O)C2(F)F)c(=O)n1", "note": "[gemcitabine]", "values": [{"measurement": "most common adverse events", "setting": "[2]", "value": "nausea/vomiting, anemia, hepatic transaminitis, neutropenia, increased ALP, proteinuria, fever, hematuria, rash, thrombocytopenia, dyspnea, and peripheral edema"}]}
{"compound": "CC(=O)O[C@H]1C(=O)[C@@]2(C)[C@H]([C@H](OC(=O)c3ccccc3)[C@]3(O)C[C@H](OC(=O)[C@H](O)[C@@H](NC(=O)c4ccccc4)c4ccccc4)C(C)=C1C3(C)C)[C@]1(OC(C)=O)CO[C@@H]1C[C@@H]2O", "note": "[paclitaxel]", "values": [{"measurement": "incidence of hematologic toxicities", "setting": "[3]", "value": "higher overall incidence of hematologic toxicities"}]}
{"compound": "CNC(=O)c1cc(Oc2ccc(NC(=O)Nc3ccc(Cl)c(C(F)(F)F)c3)cc2)ccn1", "note": "[sorafenib]", "values": [{"measurement": "median PFS", "setting": "[4]; Independent Review Facility-assessed per RECIST v1.1", "value": 4.27, "unit": "months"}, {"measurement": "median OS", "setting": "[4]; in vivo", "value": 13.24, "unit": "months"}]}
{"compound": "enfortumab vedotin", "values": [{"measurement": "patients who obtained a PR", "setting": "[5]", "value": 47, "unit": "%"}]}
{"compound": "placebo and atezolizumab: control arm of Study GO40290: placebo in combination with atezolizumab", "values": [{"measurement": "all-grade adverse events", "setting": "[6]; 135 safety-evaluable patients, tiragolumab 600 mg every 3 weeks", "value": 95.6, "unit": "%"}, {"measurement": "ORR", "setting": "[6]; ITT population", "value": 16.2, "unit": "%"}, {"measurement": "investigator-assessed PFS", "setting": "[6]; ITT population", "value": 3.6, "unit": "months"}, {"measurement": "AEs leading to treatment discontinuation", "setting": "[6]", "value": 10.3, "unit": "%"}, {"measurement": "Grade ≥3 AEs", "setting": "[6]", "value": 44.1, "unit": "%"}, {"measurement": "adverse events of special interest", "setting": "[6]", "value": 32.4, "unit": "%"}, {"measurement": "serious AEs", "setting": "[6]", "value": 35.3, "unit": "%"}]}
{"compound": "sacituzumab govitecan", "values": [{"measurement": "ORR", "setting": "[7]; 35 patients", "value": 29, "unit": "%"}, {"measurement": "ORR", "setting": "[7]; patients with liver metastases", "value": 25.0, "unit": "%"}]}
